Data: patent publication US6737383B1, “Herbicidal oxadiazolidines” (priority 1999, dated 2004)

Tests used:
bedstraw = assay: Test B pre/postemergence bedstraw; type: in vivo, Galium aparine
Procedure, shortened: (§1)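 Test chemicals in a non-phytotoxic solvent mixture with surfactant were sprayed preemergence onto planted seeds and postemergence onto plants 2 to 18 cm tall (1- to 4-leaf stage). After twelve to sixteen days in a greenhouse, injury was visually rated against untreated controls from 0 (no effect) to 10 (complete control).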

blackgrass = assay: Test B pre/postemergence blackgrass; type: in vivo, Alopecurus myosuroides
Procedure, shortened: as §1

surinam grass = assay: Test B pre/postemergence surinam grass; type: in vivo, Brachiaria decumbens
Procedure, shortened: as §1

corn = assay: Test B pre/postemergence corn; type: in vivo, Zea mays
Procedure, shortened: as §1

giant foxtail = assay: Test B pre/postemergence giant foxtail; type: in vivo, Setaria faberii
Procedure, shortened: as §1

morningglory = assay: Test B pre/postemergence morningglory; type: in vivo, Ipomoea hederacea
Procedure, shortened: as §1

pigweed = assay: Test B pre/postemergence pigweed; type: in vivo, Amaranthus retroflexus
Procedure, shortened: as §1

rape = assay: Test B pre/postemergence rape; type: in vivo, Brassica napus
Procedure, shortened: as §1

soybean = assay: Test B pre/postemergence soybean; type: in vivo, Glycine max
Procedure, shortened: as §1

sugar beet = assay: Test B pre/postemergence sugar beet; type: in vivo, Beta vulgaris
Procedure, shortened: as §1

velvetleaf = assay: Test B pre/postemergence velvetleaf; type: in vivo, Abutilon theophrasti
Procedure, shortened: as §1

purple nutsedge = assay: Test B pre/postemergence purple nutsedge; type: in vivo, Cyperus rotundus
Procedure, shortened: as §1

rice = assay: Test B flood test rice; type: in vivo, Oryza sativa
Procedure, shortened: (§2)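 Plants were grown to the 2-leaf stage before treatment with test chemical, then held in a greenhouse for twelve to sixteen days. Injury was visually rated against untreated controls on a 0–10 scale, where 0 is no effect and 10 is complete control.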

smallflower flatsedge = assay: Test B flood test smallflower flatsedge; type: in vivo, Cyperus difformis
Procedure, shortened: as §2

duck salad = assay: Test B flood test duck salad; type: in vivo, Heteranthera limosa
Procedure, shortened: as §2

bamyardgrass = assay: Test B flood test barnyardgrass; type: in vivo, Echinochloa crus-galli
Procedure, shortened: as §2

[1] = Postemergence, Rate 62 g/ha, scale of 0 to 10, 0 is no effect, 10 is complete control
[2] = Postemergence, Rate 125 g/ha, scale 0 to 10, 0 is no effect, 10 is complete control
[3] = Postemergence, Rate 500 g/ha, scale 0 to 10, 0 is no effect, 10 is complete control
[4] = Preemergence, Rate 62 g/ha, scale of 0 to 10 where 0 is no effect and 10 is complete control
[5] = Rate 250 g/ha, Postemergence, scale of 0 to 10 where 0 is no effect and 10 is complete control
[6] = Preemergence, Rate 125 g/ha, scale 0 to 10, 0 is no effect, 10 is complete control
[7] = Preemergence, Rate 500 g/ha, scale of 0 to 10 where 0 is no effect and 10 is complete control
[8] = Rate 62 g/ha, flood test species, Pre-emergence, visual evaluation after twelve to sixteen days
[9] = Rate 125 g/ha, under heading Pre-emergence, flood test species, visual evaluation after twelve to sixteen days
[10] = Rate 250 g/ha, Pre-emergence (flood test species), scale 0 to 10, 0 is no effect, 10 is complete control
[11] = Rate 500 g/ha, Pre-emergence section of Table B, 0 to 10 scale (0 no effect, 10 complete control)

## CC(C)N(C(=O)n1oc(=O)n(CCC2OCCO2)c1=O)c1ccc(Cl)cc1 [Compound 531]
bedstraw; [1]
  Bedstraw plant response rating: 0
bedstraw; [2]
  Bedstraw plant response rating: 0
bedstraw; [3]
  Plant response rating, Bedstraw: 3
bedstraw; [4]
  Plant response rating, Bedstraw: 0
bedstraw; Preemergence, Rate 250 g/ha
  Bedstraw plant response rating (0 to 10 scale): 0
bedstraw; [5]
  Plant response rating, Bedstraw: 0
blackgrass; [1]
  Blackgrass plant response rating: 0
blackgrass; [2]
  Blackgrass plant response rating: 0
blackgrass; [3]
  Plant response rating, Blackgrass: 6
blackgrass; [4]
  Plant response rating, Blackgrass: 2
blackgrass; [6]
  Blackgrass plant response rating: 9
blackgrass; Preemergence, Rate 250 g/ha
  Blackgrass plant response rating (0 to 10 scale): 9
blackgrass; [5]
  Plant response rating, Blackgrass: 0
Surinam grass; [1]
  B. signalgrass plant response rating: 0
Surinam grass; [2]
  B. signalgrass plant response rating: 0
Surinam grass; [3]
  Plant response rating, B. signalgrass: 4
Surinam grass; [4]
  Plant response rating, B. signalgrass: 2
Surinam grass; [6]
  B. signalgrass plant response rating: 2
Surinam grass; Preemergence, Rate 250 g/ha
  B. signalgrass plant response rating (0 to 10 scale, 0 is no effect, 10 is complete control): 2
Surinam grass; [5]
  Plant response rating, B. signalgrass: 0
corn; [1]
  Corn plant response rating: 0
corn; [2]
  Corn plant response rating: 0
corn; [3]
  Plant response rating, Corn: 0
corn; [4]
  Plant response rating, Corn: 0
corn; [6]
  Corn plant response rating: 0
corn; Preemergence, Rate 250 g/ha
  Corn plant response rating (0 to 10 scale): 0
corn; [7]
  Corn plant response rating: 0
corn; [5]
  Plant response rating, Corn: 0
Giant foxtail; [1]
  Giant foxtail plant response rating: 0
Giant foxtail; [2]
  Giant foxtail plant response rating: 8
Giant foxtail; [3]
  Plant response rating, Giant foxtail: 9
Giant foxtail; [4]
  Plant response rating, Giant foxtail: 9
Giant foxtail; [6]
  Giant foxtail plant response rating: 10
Giant foxtail; Preemergence, Rate 250 g/ha
  Giant foxtail plant response rating (0 to 10 scale): 10
Giant foxtail; [7]
  Giant foxtail plant response rating: 10
Giant foxtail; [5]
  Plant response rating, Giant foxtail: 9
morningglory; [1]
  Morningglory plant response rating: 2
morningglory; [2]
  Morningglory plant response rating: 4
morningglory; [4]
  Plant response rating, Morningglory: 0
morningglory; [6]
  Morningglory plant response rating: 0
morningglory; Preemergence, Rate 250 g/ha
  Morningglory plant response rating (0 to 10 scale): 0
morningglory; [7]
  Morningglory plant response rating: 0
morningglory; [5]
  Plant response rating, Morningglory: 4
pigweed; [1]
  Redroot pigweed plant response rating: 0
pigweed; [2]
  Redroot pigweed plant response rating: 0
pigweed; [3]
  Plant response rating, Redroot pigweed: 0
pigweed; [4]
  Plant response rating, Redroot pigweed: 0
pigweed; [6]
  Redroot pigweed plant response rating: 0
pigweed; Preemergence, Rate 250 g/ha
  Redroot pigweed plant response rating (0 to 10 scale): 0
pigweed; [5]
  Plant response rating, Redroot pigweed: 0
rape; [1]
  Rape plant response rating: 0
rape; [2]
  Rape plant response rating: 0
rape; [3]
  Plant response rating, Rape: 2
rape; [4]
  Plant response rating, Rape: 0
rape; [6]
  Rape plant response rating: 0
rape; Preemergence, Rate 250 g/ha
  Rape plant response rating (0 to 10 scale): 0
rape; [5]
  Plant response rating, Rape: 0
soybean; [1]
  Soybean plant response rating: 3
soybean; [2]
  Soybean plant response rating: 3
soybean; [3]
  Plant response rating, Soybean: 6
soybean; [4]
  Plant response rating, Soybean: 0
soybean; [6]
  Soybean plant response rating: 0
soybean; Preemergence, Rate 250 g/ha
  Soybean plant response rating (0 to 10 scale): 0
soybean; [7]
  Soybean plant response rating: 0
soybean; [5]
  Plant response rating, Soybean: 6
Sugar beet; [1]
  Sugarbeets plant response rating: 0
Sugar beet; [2]
  Sugarbeets plant response rating: 0
Sugar beet; [3]
  Plant response rating, Sugarbeets: 6
Sugar beet; [4]
  Plant response rating, Sugarbeets: 0
Sugar beet; [6]
  Sugarbeets plant response rating: 4
Sugar beet; Preemergence, Rate 250 g/ha
  Sugarbeets plant response rating (0 to 10 scale): 3
Sugar beet; [5]
  Plant response rating, Sugarbeets: 0
velvetleaf; [1]
  Velvetleaf plant response rating: 0
velvetleaf; [2]
  Velvetleaf plant response rating: 0
velvetleaf; [3]
  Plant response rating, Velvetleaf: 3
velvetleaf; [4]
  Plant response rating, Velvetleaf: 0
velvetleaf; [6]
  Velvetleaf plant response rating: 0
velvetleaf; Preemergence, Rate 250 g/ha
  Velvetleaf plant response rating (0 to 10 scale): 2
velvetleaf; [7]
  Velvetleaf plant response rating: 5
velvetleaf; [5]
  Plant response rating, Velvetleaf: 0
Purple nutsedge; [1]
  Nutsedge plant response rating: 0
Purple nutsedge; [2]
  Nutsedge plant response rating: 0
Purple nutsedge; [3]
  Plant response rating, Nutsedge: 3
Purple nutsedge; [4]
  Plant response rating, Nutsedge: 0
Purple nutsedge; [6]
  Nutsedge plant response rating: 0
Purple nutsedge; Preemergence, Rate 250 g/ha
  Nutsedge plant response rating (0 to 10 scale): 0
Purple nutsedge; [7]
  Nutsedge plant response rating: 0
Purple nutsedge; [5]
  Plant response rating, Nutsedge: 0
rice; [8]
  Plant response rating, Rice (0 to 10 scale, 0 is no effect, 10 is complete control): 0
rice; [9]
  Rice plant response rating (0 to 10 scale, 0 is no effect, 10 is complete control): 0
rice; [10]
  Rice plant response rating: 0
rice; [11]
  Rice plant response rating: 0
Smallflower flatsedge; [8]
  Plant response rating, S. Flatsedge (0 to 10 scale, 0 is no effect, 10 is complete control): 0
Smallflower flatsedge; [9]
  S. Flatsedge plant response rating (0 to 10 scale, 0 is no effect, 10 is complete control): 0
Smallflower flatsedge; [10]
  S. Flatsedge plant response rating: 0
Smallflower flatsedge; [11]
  S. Flatsedge plant response rating: 0
Duck salad; [8]
  Plant response rating, Ducksalad (0 to 10 scale, 0 is no effect, 10 is complete control): 0
Duck salad; [9]
  Ducksalad plant response rating (0 to 10 scale, 0 is no effect, 10 is complete control): 0
Duck salad; [10]
  Ducksalad plant response rating: 0
Duck salad; [11]
  Ducksalad plant response rating: 0
bamyardgrass; [8]
  Plant response rating, Barnyardgrass (0 to 10 scale, 0 is no effect, 10 is complete control): 0
bamyardgrass; [9]
  Barnyardgrass plant response rating (0 to 10 scale, 0 is no effect, 10 is complete control): 0
bamyardgrass; [10]
  Barnyardgrass plant response rating: 0
bamyardgrass; [11]
  Barnyardgrass plant response rating: 0
